# In US20190119282A1, “IMIDAZOPYRIDAZINES USEFUL AS INHIBITORS OF THE PAR-2 SIGNALING PATHWAY” (Vertex Pharmaceuticals Incorporated, priority 2013, published 2019):
# pIC50: −log10 of the molar value. Marks after values point to notes of the source that are not given here.
# How the values were obtained:
# [1] = In vivo rat pharmacokinetics (intravenous and oral); details: plasma; for clearance: intravenous 0.5 to 1 mg/kg, read-out: Clp; for Vd: intravenous, read-out: Vss; for bioavailability: oral by gavage; for half-life: read-out: T ½ (converted)
# Method: Example 61: Protocol for Testing PAR2 Compounds In Vivo Rat Pharmacokinetics Experiments
# Compounds delivered by intravenous route were formulated using a solution formulation consisting of 5% N-methylpyrrolidone 10% Vitamin E-TPGS and 85% water (v/v/) or a solution formulation consisting of 25% N-methylpyrrolidone 35% polyethylene glycol 400 and 40% water (v/v/). Intravenous formulations were administered by a bolus injection (over approximately 10 seconds) using a hypodermic needle attaches to a syringe (tail vein). The dose volume was varied from 1 to 2 mL/kg and the dose was varied from 0.5 to 1 mg/kg. Compounds delivered orally were formulated as a solution formulation consisting of 5% N-methylpyrrolidone 10% Vitamin E-TPGS and 85% water (v/v/) or as fine suspension using a cellulose derivative suspending agent with or without the addition of a wetting agent/surfactant. Milling of large particles was performed as needed to reduce particle size using focused electroacoustic milling, homogenization or low energy media milling. A spray-dried solid dispersion was prepared for key compounds using 1:1 combination with cellulose derivatives. Test compounds were administered orally by gavage using a gavage plastic needle attached to a syringe. The dose volume was varied from 5 to 10 mL/kg and the dose was varied from 1 to 600 mg/kg.
# Rats were bled by venipuncture (jugular vein) and the samples were collected into tubes containing K3EDTA. The tubes were placed on wet ice until processed. The samples were centrifuged for approximately 10 minutes (at approximately 4° C.) within approximately 30 minutes of collection to prepare plasma or diluted in citrate buffer (1:3) and stored frozen (approximately −30° C.). Thawed plasma or whole blood samples were extracted by protein precipitation using an organic solvent followed by centrifugation. The supernatants were separated by high-performance liquid chromatography coupled to mass spectrometry detection. A calibration curve was prepared using reference standard compounds spiked into either blank plasma or whole blood matrices and extracted similarly to unknown samples. Pharmacokinetic parameters were calculated using non-compartmental analysis.
# [2] = test system: tryptase-induced mechanical hypersensitivity; assay: Rat tryptase-induced mechanical hypersensitivity model; assay type: in vivo, Sprague Dawley rats; details: for % inhibition of tryptase-induced nociception: given 3-18 h before the tryptase challenge; for % inhibition of an established tryptase-induced nociception: given 30 minutes post tryptase challenge
# Method: (§1) Male Sprague Dawley rats and BALB/c mice were housed in groups in a temperature controlled room and were acclimatized in the animal facility for at least three days prior to use. Experiments were performed during the light phase of the cycle. Animals have food and water ad libitum.
# Example 64: Rat Tryptase-Induced Mechanical Hypersensitivity Model
# Peripheral sensitization was induced by intra-dermal administration of 500 ng of tryptase in a volume of 10 ul PBS under isoflurane anesthesia. Rats were then placed on a wire mesh grid in separate compartments and allowed to acclimatize before testing. Mechanical hypersensitivity was assessed 30 min after tryptase injection using calibrated von Frey filaments applied perpendicular to the plantar surface of the affected paw using the up-and-down method. Test compounds or vehicle (0.5% MC/0.1% SDS) were systemically administered at doses indicated in a volume of 5 mL/kg 3-18 h before the tryptase challenge (Table 11) or 30 minutes post tryptase challenge (Table 12).
# (§2) Data are expressed as the mean % effect. Statistical significance was assessed using t-test for comparison between naive and inflamed rats, and one-way ANOVA followed by post-hoc comparison test for overall drug effectiveness. A difference between groups is considered significant with a p value of <0.05. *, p<0.05; **, p<0.01; ***, p<0.001 vs. vehicle.
# [3] = test system: UTP-stimulated Ca2+ response in HT-29 cells; assay: Ca FLIPR TETRA assay, ANTAGONIST mode, stimulation with 0.6 μM UTP; assay type: cell-based, human; details: Homo sapiens; HT-29 cells, antagonist mode, stimulation with 0.6 μM UTP
# Outline: (§3)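 Inhibition of activator-evoked Ca2+ flux was recorded on FLIPR Tetra in HT-29 cells after 30 min compound exposure at r.t. A prior read checked whether compounds alone triggered Ca2+ release.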
# [4] = biological target: T1, PAR2 (HT-29 cells, SLIGKV activation) (Homo sapiens, UniProt P55085); assay: Ca FLIPR TETRA assay, ANTAGONIST mode, stimulation with 8 μM SLIGKV; assay type: cell-based; details: HT-29 cells, antagonist mode, stimulation with 8 μM SLIGKV
# T1 construct: host or cells: HT-29 cells
# T1 sequence (P55085 26-397): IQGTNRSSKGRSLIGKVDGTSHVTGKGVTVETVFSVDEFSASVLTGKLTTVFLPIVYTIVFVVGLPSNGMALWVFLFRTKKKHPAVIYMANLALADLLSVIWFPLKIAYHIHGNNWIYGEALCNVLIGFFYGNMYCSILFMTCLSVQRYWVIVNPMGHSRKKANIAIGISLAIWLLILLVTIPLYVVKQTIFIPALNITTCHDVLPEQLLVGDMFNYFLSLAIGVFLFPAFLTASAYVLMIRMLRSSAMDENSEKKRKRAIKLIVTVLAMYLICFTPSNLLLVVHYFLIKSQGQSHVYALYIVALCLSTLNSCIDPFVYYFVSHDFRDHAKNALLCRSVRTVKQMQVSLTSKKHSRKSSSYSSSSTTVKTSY
# Outline: as §3
# [5] = test system: carrageenan-induced paw edema; assay: Rat carrageenan-induced paw edema model; assay type: in vivo, Sprague Dawley rats; details: for % inhibition of carrageenan induced paw edema: given before carrageenan challenge; for % inhibition of an established carrageenan induced rat paw edema: given 2 hours post carrageenan challenge
# Method: as §1
# Example 63: Rat Carrageenan-Induced Paw Edema Model
# Peripheral inflammation was induced by intra-plantar administration of 100 ul of a 1% w/volume (in saline) carrageenan solution under isoflurane anesthesia. The degree of swelling was assessed using the plethysmometer at 2-3-4-5-6 h after carrageenan injection. Test compound or vehicle (0.5% MC/0.1% SDS) was systemically administered at the indicated doses in a volume of 5 mL/kg either I-3 hour before carrageenan challenge (Table 9) or 2 hours post carrageenan challenge (Table 10).
# as §2
# [6] = test system: Thrombin-stimulated Ca2+ response in HT-29 cells; assay: Ca FLIPR TETRA assay, ANTAGONIST mode, stimulation with 1 U/mL Thrombin; assay type: cell-based, human; details: Homo sapiens; HT-29 cells, antagonist mode, stimulation with 1 U/mL Thrombin
# Outline: as §3
# [7] = biological target: T2, PAR2 (HT-29 cells, trypsin activation) (Homo sapiens, UniProt P55085); assay: Ca FLIPR TETRA assay, ANTAGONIST mode, stimulation with 3.1 U/mL trypsin; assay type: cell-based; details: HT-29 cells, antagonist mode, stimulation with 3.1 U/mL trypsin
# T2 construct: host or cells: HT-29 cells
# T2 sequence (P55085 26-397): T1 sequence (P55085 26-397)
# Outline: as §3
# TNBS-induced colitis = assay: Mouse TNBS-induced colitis model; assay type: in vivo, BALB/c mice; details: mice
# Method: as §1
# Example 65: Mouse TNBS-Induced Colitis Model
# Colitis was induced by intra-colonic administration of 1.5 mg of TNBS in 75 μl of 40% v/volume ethanol solution under isoflurane anesthesia at a depth of 4 cm from the anal verge. Mice were kept with their heads down for 30 additional seconds post administration to ensure distribution of TNBS. Disease activity scores were assessed for a period of 5 days starting prior to TNBS injection (baseline reading). […] Test compounds or vehicle (0.5% MC/0.1% SDS) were systemically administered at the indicated doses in a volume of 10 mL/kg each day for 5 days and starting 1 day before TNBS.
# as §2
clearance [1] [mL/min/kg],Vd [1] [L/kg],bioavailability [1] [%],half-life [1] [h],pIC50 [3],pIC50 [4],pIC50 [6],pIC50 [7],SMILES,% inhibition of carrageenan induced paw edema ([5]; dose 20 mg/kg),further results
10.9,3.3,55,4.3,6.25,9.15,6.43,9.05,CC(C)(C)c1cc(-c2ccc(F)cc2)nn2cc(C(=O)N3CCN(C(=O)c4ccn[nH]4)CC3(C)C)nc12 [Compound I-201],60*** %,% inhibition of tryptase-induced nociception ([2]; dose 5 mg/kg): 52** %; % inhibition of tryptase-induced nociception ([2]; dose 15 mg/kg): 65*** %; % inhibition of carrageenan induced paw edema ([5]; dose 5 mg/kg): 55** %
0.7,3.2,66,56.9,6.36,8.85,6.49,8.64,"CC(C)(C)c1cc(-c2ccc(F)cc2)nn2cc(C(=O)N3CCNC(=O)C3(C)C)nc12 [Compound I-191, 4-(8-(tert-butyl)-6-(4-fluorophenyl)imidazo[1,2-b]pyridazine-2-carbonyl)-3,3-dimethylpiperazin-2-one]",–,% inhibition of tryptase-induced nociception ([2]; dose 1 mg/kg): 26%; % inhibition of tryptase-induced nociception ([2]; dose 3 mg/kg): 36%; % inhibition of tryptase-induced nociception ([2]; dose 10 mg/kg): 40** %; % inhibition of an established carrageenan induced rat paw edema ([5]; dose 0.6 mg/kg): 26%; % inhibition of an established carrageenan induced rat paw edema ([5]; dose 2 mg/kg): 40* %; % inhibition of an established carrageenan induced rat paw edema ([5]; dose 3 mg/kg): 46*** %; % inhibition of an established carrageenan induced rat paw edema ([5]; dose 6 mg/kg): 48* %; % inhibition of an established carrageenan induced rat paw edema ([5]; dose 10 mg/kg): 50*** %; % inhibition of an established carrageenan induced rat paw edema ([5]; dose 30 mg/kg): 57*** %; % improvement in Disease activity scores (TNBS-induced colitis; dose 15 mg/kg each day for 5 days starting 1 day before TNBS): 21** %; % improvement in Disease activity scores (TNBS-induced colitis; dose 50 mg/kg each day for 5 days starting 1 day before TNBS): 36*** %
4.8,1.6,70,5.1,5.44,8.12,5.43,7.99,"Cc1cc(-c2cc(C(C)C)c3nc(C(=O)N4CCNC(=O)C4(C)C)cn3n2)ccc1F [Compound I-244, 4-[6-(4-fluoro-3-methyl-phenyl)-8-isopropyl-imidazo[1,2-b]pyridazine-2-carbonyl]-3,3-dimethyl-piperazin-2-one]",67*** %,% inhibition of an established tryptase-induced nociception ([2]; dose 2 mg/kg): 21* %; % inhibition of an established tryptase-induced nociception ([2]; dose 6 mg/kg): 43* %; % inhibition of an established tryptase-induced nociception ([2]; dose 20 mg/kg): 48* %; % inhibition of carrageenan induced paw edema ([5]; dose 2 mg/kg): 42** %; % inhibition of carrageenan induced paw edema ([5]; dose 6 mg/kg): 51** %
16.9,3.3,75,2.5,6.05,9.00,6.05,8.85,CC(C)(C)c1cc(-c2ccc(F)cc2)nn2cc(C(=O)N3CCN(C(=O)c4c[nH]cn4)CC3(C)C)nc12 [Compound I-232],–,% inhibition of carrageenan induced paw edema ([5]; dose 10 mg/kg): 19* %
